# Literature values, collected in US5346693A, “Depigmenting cosmetic or dermatological composition containing arbutoside derivatives” (L'Oreal, priority 1991, dated 1994).
# Test system: melanocyte
structure (smiles),measurement,value
Oc1ccc(O)cc1 [hydroquinone],cytotoxicity to the melanocyte,cytotoxic to the melanocyte
